≈ marks a conversion by molar mass, not a printed value.
Assays:
[1] = tested on: RWPE-1 cells; experiment: MTT assay (cytotoxicity) in RWPE-1; assay type: cell-based; conditions: Homo sapiens, FIG. 4, read-out: GI50 against RWPE-1
Text: FIG. 4. Bioassay of compound I-1, compound I-2, and compound I-3. SPA14-3-2 is pure compound I-2. SPA14-3-3 is pure compound I-3. SPA14-3-4 is pure compound I-1. MTT assays using compound I-1, compound I-2, and compound I-3 against DU145 and RWPE-1 cells lines.
Isolation, NMR, and X-ray crystallographic analyses. Leaves, stems, and few fruits of Physalis angulate L (Solanaceae) were collected in Rio Domingusa. Kuith/Barranquita, Amazonas Department, Northeastern Peru, and identified by the team led by Walter Lewis (collection voucher 18597, Ext. 1159). Dried and grounded material (46 g) was extracted with ethanol (1 L, 95%) for 7 days. The evaporated crude extract (6.26 g) was denoted SPA. An aliquot (1.5 g) of SPA was partitioned between dichloromethane (40 mL) and water (40 mL), affording two fractions: organic (SPA1, 500 mg) and aqueous (SPA2, 600 mg). All MTT assays were performed as described in Bates et al. “G-Rich Oligonucleotides for Cancer Treatment” Chapter 21 of Methods in Molecular Biology, Gene Therapy of Cancer, Wolfgang Walther and Ulrike S. Stein (eds.), Vol. 542, 2009, Humana Press. […] SPA14-3 (30 mg) was treated on an HPLC using a reverse phase C18 column eluted in gradient mode of methanol and water (from 80% methanol to 100% methanol) and detected at 254 nm, yielding SPA14-3-1 (0 mg), SPA14-3-2 (1.2 mg of pure compound I-2), SPA14-3-3 (4.1 mg of pure compound I-3), and SPA14-3-4 (18 mg of pure compound I-1).
General Experimental Procedure. Compound I-1 was isolated as described in Example Set 1, above. For samples of compound I-1 used in Example Set 2, HPLC and NMR indicated a purity of at least 95%. All experiments described in Example Set 2 were repeated at least two or three times. All MTT assays were performed according to Bates et al. “G-Rich Oligonucleotides for Cancer Treatment” Chapter 21 of Methods in Molecular Biology, Gene Therapy of Cancer, Wolfgang Walther and Ulrike S. Stein (eds.), Vol. 542, 2009, Humana Press.

[2] = tested on: PC3 prostate cancer cells; experiment: MTT cell proliferation assay in PC3; assay type: cell-based, human; conditions: after three days of treatment
Description: (§1) FIG. 8. Cell proliferation assay. (A) DU145 or PC3 prostate cancer were plated at a density of 1,500 cells per well in 96-well plates and incubated 18 hours at 37° C. to allow adherence. They were untreated or treated by addition of different concentrations of compound I-1 (which were added directly to the medium) or vehicle (DMSO), and proliferation was measured using a 3-(4,5-dimethylthiazol-2-yl)-2,5-diphenyltetrazolium bromide MTT assay after 3 days of treatment. Points, mean of triplicate normalized samples to vehicle sample; bars, SE. (B) GI50 after 3 days of treatment. (C) Prostate cancer cells (DU145 or PC3) or a non-malignant epithelial cells (RWPE-1) were plated at a density of 1,000 cells per well in 96-well plates and incubated 18 hours at 37° C. to allow adherence. They were untreated or treated by addition of different concentrations of compound I-1 (added directly to the medium) or vehicle (DMSO), and proliferation was by MTT assay after 5 days of treatment. Points, mean of triplicate normalized samples to vehicle sample; bars, SE.
(§2) General Experimental Procedure. Compound I-1 was isolated as described in Example Set 1, above. For samples of compound I-1 used in Example Set 2, HPLC and NMR indicated a purity of at least 95%. All experiments described in Example Set 2 were repeated at least two or three times. […]

[3] = tested on: Prostate cancer cells (DU145 or PC3) or a non-malignant epithelial cells (RWPE-1); experiment: MTT cell proliferation assay, 5 days, cancer versus non-malignant cells; assay type: cell-based, human; conditions: after five days of treatment, FIG. 8C
Description: as §1, §2

[4] = tested on: PC3 cells; experiment: Flow cytometric analysis of cell cycle (propidium iodide) in PC3; assay type: cell-based, human; conditions: 10 μM
Description: FIG. 11. Compound I-1 induces cell cycle arrest and apoptosis in PC3 cells. Prostate cancer cells were left untreated (−) or treated with compound I-1 (10 μM) or with vehicle (DMSO) for the time indicated in the figure. (A) For flow cytometric analysis of cell cycle parameters, cells were fixed, and stained with propidium iodide. Each histogram indicates the percent of cells in G1, S, and G2/M phases of the cell cycle. Data were gated to exclude apoptotic cells for these calculations. (B) After treatment, cells were lysed and total lysates were analyzed for cellular apoptotic markers by immunoblotting using anti-PARP-1 or anti-cleaved Caspase-3 antibodies. Anti-GAPDH-1 antibody was used as loading control. (C) Some 48 h-treated PC3 cells were harvest by trypsinization, washed with PBS, and total DNA was extracted then analyzed on a 1.8% agarose gel. M indicates DNA size marker (base pairs).
Flow cytometric assays of cell cycle and cell death. Cells in fresh complete medium were plated (2×10^5 per well) into six-well plates for 18 h. After complete adhesion, cells were treated as indicated in the figures and harvested by trypsinization. […] Cells were then analyzed by flow cytometry using a FACScalibur cytometer (BD Biosciences, Mountain View, Calif.) and FlowJo program (Tree Star, Inc., Ashland, Oreg.).

`C[C@@H]1CC[C@H]2C3C(O[C@]4([C@]5(O)CC6(C)C(=O)OC5C[C@@]6(C)O)CC[C@@]31O4)[C@H]1O[C@]13CC=CC(=O)[C@]23C` (stereo partly shown) [I-1] was tested, and the GI50 [1] was roughly 1.2 µg/mL (≈ 2.4 µM), the “concentration of maximum antiproliferative activity” value [2] was 10 µM and the “inhibition of cancer cell growth as compared to non-malignant cell growth” value [3] was “selectivity inhibit cancer cell growth”. For the same compound, the G2/M arrest [4] was “able to cause G2/M arrest”.
